The values below come from the supplement of paper PMC3974653.

The test system of the test is MTT (mouse pheochromocytoma). Description: IC50 of cell viability (ATP content). As to conditions: (24 or 48 h). In outline:
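MTT mouse pheochromocytoma cells in white 1536-well plates were treated for 24 or 48 hrs with library compounds at 8 final concentrations from 0.5 nM to 46 µM. ATP content was measured with CellTiter-Glo luminescence, using positive-control wells as 100% and DMSO wells as 0%. IC50 came from a four-parameter logistic fit.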

Molecules are shown by their SMILES. Where a name gives a salt, the structure may show the parent alone. Where only a bound is given, the exact number is not on record here.

Take `CCCCCCCCCCCCCCCCCCNC(=O)OC1CCN(C(=O)OC[C@H](COC(=O)N(Cc2cccc[n+]2CC)C(=O)c2ccccc2OC)OC)CC1` [Minopafant]: the “IC50 of cell viability” value is greater than 46 µM.

Consider `CN1CCN2c3ncccc3Cc3ccccc3C2C1` (stereo not given) [Mirtazapine], for which the “IC50 of cell viability” value is greater than 46 µM. Regarding `CCCCC(C)(O)C/C=C/[C@H]1[C@H](O)CC(=O)[C@@H]1CCCCCCC(=O)OC` (stereo not given in full) [Misoprostol], the “IC50 of cell viability” value is greater than 46 µM. With `Clc1ccc(C(c2ccccc2Cl)C(Cl)Cl)cc1` (stereo not given) [Mitotane] the figure was greater than 46 µM. Take `COc1cc2c(cc1OC)[C@@H](Cc1cc(OC)c(OC)c(OC)c1)[N@+](C)(CCCOC(=O)CC/C=C/CCC(=O)OCCC[N@+]1(C)CCc3cc(OC)c(OC)cc3[C@H]1Cc1cc(OC)c(OC)c(OC)c1)CC2` [Mivacurium]: the “IC50 of cell viability” value was greater than 46 µM. Under `NC(=O)c1ncn([C@@H]2O[C@H](CO)[C@@H](O)[C@H]2O)c1O` [Mizoribine] stands greater than 46 µM; under `O=C(NCCN1CCOCC1)c1ccc(Cl)cc1` [Moclobemide], greater than 46 µM. With `CCc1c(C)[nH]c2c1C(=O)[C@H](CN1CCOCC1)CC2` [Molindone hydrochloride], the “IC50 of cell viability” value is greater than 46 µM. Under `COc1ccc(C(=O)N2CCN(CC(=O)N3CCOCC3)CC2)cc1` [Molracetam] stands greater than 46 µM; under `CCOC(=O)[N-]c1c[n+](N2CCOCC2)no1` [Molsidomine], greater than 46 µM; under `C[C@H]1C[C@H]2[C@H]3CC\C4=C\C(=O)\C=C/[C@@]4(C)[C@@]3(Cl)[C@@H](O)C[C@]2(C)[C@]1(OC(=O)C5=CC=CO5)C(=O)CCl` [Mometasone furoate], greater than 46 µM. Under `CCC1([C@@H]2O[C@@H]([C@@H]3O[C@](O)(CO)[C@@H](C)C[C@H]3C)C[C@H]2C)CC[C@H]([C@]2(C)CC[C@]3(C[C@@H](O)[C@@H](C)[C@H]([C@H](C)[C@H](OC)[C@H](C)C(=O)[O-])O3)O2)O1.[Na+]` (stereo not given in full) [Monensin sodium salt] stands greater than 46 µM; under `CCCCC(CC)COC(=O)c1ccccc1C(=O)O` (stereo not given) [Mono(2-ethylhexyl) phthalate], greater than 46 µM; under `[H][C@]12CC[N@@]3CC=C(COC(=O)[C@](C)(O)[C@](C)(O)[C@@]([H])(C)C(=O)O1)[C@]23[H]` [Monocrotaline], greater than 46 µM.

For `Cc1ccc(C2(O)CCN(CCCC(=O)c3ccc(F)cc3)CC2)cc1` [Moperone], the “IC50 of cell viability” value is greater than 46 µM.

Regarding `Cc1ccsc1/C=C\C1=NCCCN1C.O=C(O)[C@@H](O)[C@@H](O)C(=O)O` [Morantel tartrate], the “IC50 of cell viability” value was greater than 46 µM. Under `CCOC(=O)Nc1ccc2c(c1)N(C(=O)CCN1CCOCC1)c1ccccc1S2` [Moricizine hydrochloride] stands greater than 46 µM; under `O=C(NCN1CCOCC1)c1cnccn1` [Morinamida], greater than 46 µM; under `N=C(N)NC(=N)N1CCOCC1` [Moroxidine hydrochloride], greater than 46 µM. With `CN1CC[C@@]23C4OC5=C(O)C=CC(=C25)C[C@@H]1C3\C=C/C4O` (stereo not given in full) [Morphine] the figure was greater than 46 µM; with `O=C1NC2CCCCN2C12CCN(CCCN1c3ccccc3CCc3ccc(Cl)cc31)CC2` (stereo not given) [Mosapramine], greater than 46 µM; with `[Na+].[Na+].CO[C@@]1(NC(=O)[C@H](C([O-])=O)C2=CC=C(O)C=C2)[C@@H]3OC\C(=C(/N3C1=O)C([O-])=O)CSC4=NN=N[N]4C` [Moxalactam disodium salt], greater than 46 µM. `CO/N=C1\C[C@]2(C[C@@H]3C[C@H](CC=C(C)C[C@@H](C)C=CC=C4CO[C@@H]5[C@@H](O)C(C)=C[C@@H](C(=O)O3)[C@]45O)O2)O[C@@H](/C(C)=C/C(C)C)[C@H]1C` [Moxidectin]: the “IC50 of cell viability” value is greater than 46 µM. With `CO/N=C1/CC2(CC3CC(CC=C(C)CC(C)C=CC=C4COC5C(O)C(C)=CC(C(=O)O3)C45O)O2)OC(/C(C)=C/C(C)C)C1C` (stereo not given) [Moxidectin] the figure was greater than 46 µM; with `O.Cl.COC1=C2N(\C=C(C(O)=O)/C(=O)C2=CC(=C1N3C[C@@H]4CCCN[C@@H]4C3)F)C5CC5` [Moxifloxacin Hydrochloride Monohydrate], greater than 46 µM. As for `CC(=O)Oc1cc(C(C)C)c(OCCN(C)C)cc1C` [Moxisylyte hydrochoride], the “IC50 of cell viability” value is greater than 46 µM. With `COC1=NC(=NC(=C1N\C2=N\CCN2)Cl)C` [Moxonidine], the “IC50 of cell viability” value is greater than 46 µM. With `CCCCCCC(=O)CCCCCC/C=C/C[C@@H](O)[C@H](O)[C@@](N)(CO)C(=O)O` [Myriocin from Mycelia sterilia] the figure was greater than 46 µM; with `c1ccc(CNCCNCc2ccccc2)cc1` [N,N'-DIBENZYLETHYLENEDIAMMONIUM DI(ACETATE)], greater than 46 µM. With `C=CC(=O)NCNC(=O)C=C` [N,N'-Methylenebis(acrylamide)] the figure was greater than 46 µM. With `CCN(CC)CCOc1ccc(Cc2ccccc2)cc1` [N,N-DIETHYL-2-[4-(PHENYLMETHYL)PHENOXY]ETHANAMINE], the “IC50 of cell viability” value was greater than 46 µM. For the molecule `CCN(CC)CCc1c[nH]c2ccccc12` [N,N-Diethyltryptamine], the “IC50 of cell viability” value was greater than 46 µM. `C[N+](C)(CCOc1ccccc1)Cc1cccs1.O=S([O-])Oc1ccc(Cl)cc1` [N,N-Dimethyl-N-2-phenoxyethyl-N-2 Äô-thenylammoniu ...]: the “IC50 of cell viability” value was greater than 46 µM.

Regarding `CN(C)Cc1ccccc1` [N,N-Dimethylbenzylamine], the “IC50 of cell viability” value was greater than 46 µM. On to `CN(C)CCc1c[nH]c2ccccc12` [N,N-Dimethyltryptamine], for which the “IC50 of cell viability” value was greater than 46 µM. With `CCCN(CCC)CCc1c[nH]c2ccccc12` [N,N-Dipropyltryptamine], the “IC50 of cell viability” value was greater than 46 µM.

As for `NCCNc1cccc2ccccc12.[Cl-].[Cl-].[H+].[H+]` [N-(1-Naphthyl)ethylenediamine 2HCl], the “IC50 of cell viability” value is greater than 46 µM.

On to `CC(=O)N[C@@H](Cc1ccc(O)cc1)C(=O)O` [N-ACETYL-TYROSINE], for which the “IC50 of cell viability” value was greater than 46 µM. As for `CCCCC/C=C\C/C=C\C/C=C\C/C=C\CCCC(=O)NCC(=O)O` [N-ARACHIDONYLGLYCINE], the “IC50 of cell viability” value is greater than 46 µM. Take `CC(=O)Nc1ccc([S+](=O)([O-])Nc2cc(C)on2)cc1` [N-Acetyl Sulfamethoxazole]: the “IC50 of cell viability” value is greater than 46 µM.

In the case of `CC(=O)N[C@@H](C=O)[C@@H](O)[C@H](O)[C@H](O)CO` [N-Acetylgalactosamine], the “IC50 of cell viability” value is greater than 46 µM. With `NC(=O)N[C@@H](CCC(=O)O)C(=O)O` [N-CARBAMYL-L-GLUTAMIC ACID] the figure was greater than 46 µM. For `c1ccc2sc(SNC3CCCCC3)nc2c1` [N-CYCLOHEXYLBENZOTHIAZYLSULFENAMIDE], the “IC50 of cell viability” value was greater than 46 µM. Under `O=C1CCC(=O)N1CO` [N-HYDROXYMETHYLSUCCINIMIDE] stands greater than 46 µM. On to `CC([C@H](O)c1ccccc1)N(C)C` (stereo partly drawn) [N-METHYL (-)EPHEDRINE], for which the “IC50 of cell viability” value was greater than 46 µM. With `CNCc1ccccc1.Cl` [N-METHYLBENZYLAMINE HYDROCHLORIDE] the figure was greater than 46 µM. For the molecule `CN1C(=O)c2ccccc2C1=O` [N-Methylphthalimide], the “IC50 of cell viability” value was greater than 46 µM. Under `COC(=O)[C@@H](N)CCCNC(=N)N[N+](=O)[O-]` [N-NITRO-ARGININE METHYL ESTER] stands greater than 46 µM; under `COC1=C2OC3C(O)\C=C/C4[C@H]5CC(=C2[C@@]34CCN5)C=C1` (stereo not given in full) [N-Norcodeine], greater than 46 µM; under `OC1\C=C/C2[C@H]3CC4=C5C(=C(O)C=C4)OC1[C@@]25CCN3` (stereo not given in full) [N-Normorphine], greater than 46 µM. For the molecule `CC(=O)N[C@@H](CS)C(=O)O` [N-acetylcysteine], the “IC50 of cell viability” value is greater than 46 µM. With `N=C(N)Nc1ccc(C(=O)Oc2ccc3cc(C(=N)N)ccc3c2)cc1` [NAFAMOSTAT MESILATE] the figure was greater than 46 µM; with `COc1ccccc1N1CCN(CC(O)COc2cccc3ccccc23)CC1` (stereo not given) [NAFTOPIDIL], greater than 46 µM.

For the molecule `Oc1ccc2c3c1O[C@H]1[C@@H](O)CC[C@@]4(O)C(C2)N(CC2CCC2)CCC314` (stereo not given in full) [NALBUPHINE], the “IC50 of cell viability” value is greater than 46 µM. Under `C=C1CC[C@@]2(O)[C@H]3Cc4ccc(O)c5c4[C@@]2(CCN3CC2CC2)[C@H]1O5` [NALMEFENE HYDROCHLORIDE] stands greater than 46 µM; under `O[C@H]1\C=C/[C@H]2[C@H]3CC4=C5C(=C(O)C=C4)O[C@@H]1[C@@]25CCN3CC=C` [NALORPHINE HYDROCHLORIDE], greater than 46 µM.

On to `C=CC[N+]1(C)CCC23c4c5ccc(O)c4O[C@H]2C(=O)CC[C@@]3(O)C1C5` (stereo not given in full) [NALOXONE METHIODIDE], for which the “IC50 of cell viability” value was greater than 46 µM. Under `C=CCN1CCC23c4c5ccc(O)c4O[C@H]2C(=O)CC[C@@]3(O)C1C5` (stereo not given in full) [NALOXONE] stands greater than 46 µM; under `O=C1CC[C@@]2(O)C3Cc4ccc(O)c5c4C2(CCN3CC2CC2)[C@H]1O5` (stereo not given in full) [NALTREXONE], greater than 46 µM; under `c1ccc2c(CC3=NCCN3)cccc2c1` [NAPHAZOLINE], greater than 46 µM. Regarding `COc1ccc2cc(C(C)CO)ccc2c1` (stereo not given) [NAPROXOL], the “IC50 of cell viability” value is greater than 46 µM. Regarding `CC(C)C1CCC(C(=O)NC(Cc2ccccc2)C(=O)O)CC1` (stereo not given) [NATEGLINIDE], the “IC50 of cell viability” value is greater than 46 µM. In the case of `CCCCC(CC)COS(=O)(=O)[O-]` (stereo not given) [NATRII ETASULFAS], the “IC50 of cell viability” value was greater than 46 µM. With `O=C([O-])/C=C/C(O)c1ccc(Cl)cc1.[Na+]` (stereo not given) [NCS-356] the figure was greater than 46 µM; with `[NH2][Pt]1([NH2])[O]CC(=O)[O]1` [NEDAPLATIN], greater than 46 µM.
